Measurements reported in ChEMBL document CHEMBL4382249, “1-Arylsulfonyl indoline-benzamides as a new antitubulin agents, with inhibition of histone deacetylase” (Eur J Med Chem, 2019).
pIC50: −log10 of the molar value. Calls of active or inactive are those of the source. The calls are words filed in the database; no cut-off is given here.

Key:
MKN-45 = test: Growth inhibition of human MKN45 cells after 48 hrs by SRB assay; type: functional, cell-based; conditions: MKN-45, 48 h
[1] = molecular target: T1, Protein deacetylase HDAC6 (Homo sapiens, UniProt Q9UBN7); test: Inhibition of human HDAC6 using RHKKAc as substrate by fluorescence assay
T1 sequence (Q9UBN7 whole entry): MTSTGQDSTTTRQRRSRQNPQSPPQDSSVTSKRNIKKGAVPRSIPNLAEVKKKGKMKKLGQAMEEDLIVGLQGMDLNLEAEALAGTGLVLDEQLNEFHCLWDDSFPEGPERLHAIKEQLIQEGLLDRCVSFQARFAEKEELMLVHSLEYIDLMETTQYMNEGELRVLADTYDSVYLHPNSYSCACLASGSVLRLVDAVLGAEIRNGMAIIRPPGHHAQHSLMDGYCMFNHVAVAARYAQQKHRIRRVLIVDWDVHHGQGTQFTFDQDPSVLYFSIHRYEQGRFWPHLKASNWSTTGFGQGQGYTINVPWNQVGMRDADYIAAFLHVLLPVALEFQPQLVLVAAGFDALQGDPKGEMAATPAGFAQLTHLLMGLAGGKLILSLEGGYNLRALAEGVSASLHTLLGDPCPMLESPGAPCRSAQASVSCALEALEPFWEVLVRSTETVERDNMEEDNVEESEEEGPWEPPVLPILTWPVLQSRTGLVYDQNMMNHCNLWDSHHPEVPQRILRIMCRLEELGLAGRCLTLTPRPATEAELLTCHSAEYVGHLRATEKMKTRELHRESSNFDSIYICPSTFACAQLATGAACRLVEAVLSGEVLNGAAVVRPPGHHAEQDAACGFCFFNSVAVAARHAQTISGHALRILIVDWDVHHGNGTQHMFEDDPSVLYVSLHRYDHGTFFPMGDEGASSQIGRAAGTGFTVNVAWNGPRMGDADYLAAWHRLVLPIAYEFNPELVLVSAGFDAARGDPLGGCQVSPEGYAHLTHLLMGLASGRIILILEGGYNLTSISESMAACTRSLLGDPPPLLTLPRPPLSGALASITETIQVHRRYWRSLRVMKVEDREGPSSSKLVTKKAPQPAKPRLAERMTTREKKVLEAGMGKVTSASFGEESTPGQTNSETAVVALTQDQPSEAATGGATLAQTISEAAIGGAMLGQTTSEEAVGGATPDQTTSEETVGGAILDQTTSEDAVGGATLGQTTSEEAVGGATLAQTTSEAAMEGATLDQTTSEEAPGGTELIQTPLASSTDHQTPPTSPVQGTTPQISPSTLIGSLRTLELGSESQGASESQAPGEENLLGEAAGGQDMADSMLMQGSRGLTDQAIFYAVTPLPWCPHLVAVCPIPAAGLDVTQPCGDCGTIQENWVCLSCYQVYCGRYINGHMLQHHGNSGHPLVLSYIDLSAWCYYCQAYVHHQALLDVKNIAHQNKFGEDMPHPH

BJAB [2] = test: Growth inhibition of human BJAB cells assessed as cell viability at 80 nM after 48 hrs by MTT assay (reference value: 100%)
Tubulin = Tubulin (Bos taurus, UniProt Q6B856+Q862L2+Q862F3)
[3] = molecular target: T2, Polyamine deacetylase HDAC10 (Homo sapiens, UniProt Q969S8); test: Inhibition of human HDAC10 using RHKKAc as substrate by fluorescence assay; conditions: read-out: IC50
T2 sequence (Q969S8 whole entry): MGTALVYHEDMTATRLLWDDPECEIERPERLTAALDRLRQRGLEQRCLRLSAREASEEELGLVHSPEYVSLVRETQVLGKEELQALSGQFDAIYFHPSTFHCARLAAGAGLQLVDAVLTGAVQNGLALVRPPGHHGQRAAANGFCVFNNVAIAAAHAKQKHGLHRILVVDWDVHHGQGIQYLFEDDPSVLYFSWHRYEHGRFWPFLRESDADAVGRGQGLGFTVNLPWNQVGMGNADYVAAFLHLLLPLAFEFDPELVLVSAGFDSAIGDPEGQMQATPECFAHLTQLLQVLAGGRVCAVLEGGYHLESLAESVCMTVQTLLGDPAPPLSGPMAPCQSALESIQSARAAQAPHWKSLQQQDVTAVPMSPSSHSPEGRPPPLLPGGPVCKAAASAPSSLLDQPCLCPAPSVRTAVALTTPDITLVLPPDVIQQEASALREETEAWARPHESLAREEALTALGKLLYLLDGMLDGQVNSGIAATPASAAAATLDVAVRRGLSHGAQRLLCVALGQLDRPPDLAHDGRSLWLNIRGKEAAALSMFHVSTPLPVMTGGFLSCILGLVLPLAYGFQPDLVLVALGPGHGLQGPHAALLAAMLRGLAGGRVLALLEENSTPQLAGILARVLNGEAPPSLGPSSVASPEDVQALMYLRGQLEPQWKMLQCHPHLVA

A549 = test: Antitumor activity against human A549 cells xenografted in Balb/c nude mouse assessed as tumor growth inhibition at 50 mg/kg, ip daily measured up to 18 days relative to control; type: functional; conditions: 432 h, read-out: TGI
[4] = Growth inhibition of human KB-S15 cells after 48 hrs by SRB assay; type: functional; conditions: KB-S15, 48 h
[5] = Growth inhibition of human KB-VIN10 cells after 48 hrs by SRB assay; type: functional; conditions: KB-VIN10, 48 h
Tubulin (Bos taurus) = Tubulin (Bos taurus) (UniProt Q6B856+Q862L2+Q862F3); conditions: at 1 µM
[6] = Toxicity in nude Balb/c mouse xenografted with human A549 cells assessed as change in body weight at 50 mg/kg, ip daily measured up to 18 days; type: organism-based; conditions: in vivo, 432 h
Histone deacetylase 9 = Histone deacetylase 9 (Homo sapiens, UniProt Q9UKV0); test: Inhibition of human HDAC9 using fluorogenic p53 (379-382) peptide RHKK(Ac) as substrate by fluorescence assay
Chain of Histone deacetylase 9 (Q9UKV0 whole entry): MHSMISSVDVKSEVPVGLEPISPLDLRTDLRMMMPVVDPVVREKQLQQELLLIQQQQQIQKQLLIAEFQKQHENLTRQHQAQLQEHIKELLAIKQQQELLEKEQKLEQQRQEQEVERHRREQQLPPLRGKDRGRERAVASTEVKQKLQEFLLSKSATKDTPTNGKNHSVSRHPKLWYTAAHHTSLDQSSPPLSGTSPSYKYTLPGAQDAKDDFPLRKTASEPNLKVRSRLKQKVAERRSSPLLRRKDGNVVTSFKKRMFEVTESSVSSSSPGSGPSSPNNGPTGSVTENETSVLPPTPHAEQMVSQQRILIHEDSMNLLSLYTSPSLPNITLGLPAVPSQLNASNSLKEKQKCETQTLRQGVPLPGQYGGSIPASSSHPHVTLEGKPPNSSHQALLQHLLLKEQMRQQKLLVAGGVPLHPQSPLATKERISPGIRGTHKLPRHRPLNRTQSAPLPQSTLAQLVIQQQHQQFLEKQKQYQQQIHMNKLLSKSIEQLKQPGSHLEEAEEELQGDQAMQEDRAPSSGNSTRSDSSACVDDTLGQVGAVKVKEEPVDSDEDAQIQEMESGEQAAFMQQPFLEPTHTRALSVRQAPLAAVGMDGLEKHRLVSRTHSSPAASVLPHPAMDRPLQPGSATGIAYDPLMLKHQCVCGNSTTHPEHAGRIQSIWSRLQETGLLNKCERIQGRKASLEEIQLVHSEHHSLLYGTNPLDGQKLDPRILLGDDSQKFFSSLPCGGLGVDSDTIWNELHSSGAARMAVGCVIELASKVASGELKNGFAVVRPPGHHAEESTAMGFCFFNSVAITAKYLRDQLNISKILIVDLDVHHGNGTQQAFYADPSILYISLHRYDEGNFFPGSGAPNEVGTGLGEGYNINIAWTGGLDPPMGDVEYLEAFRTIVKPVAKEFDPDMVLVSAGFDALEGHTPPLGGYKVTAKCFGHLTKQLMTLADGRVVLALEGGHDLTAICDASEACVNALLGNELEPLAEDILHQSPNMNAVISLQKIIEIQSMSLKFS

BJAB [7] = test: Growth inhibition of human BJAB cells assessed as cell viability at 5 nM after 48 hrs by MTT assay (reference value: 100%)
Histone deacetylase 4 = Histone deacetylase 4 (Homo sapiens, UniProt P56524); test: Inhibition of human HDAC4 using fluorogenic p53-derived peptide RHKK(Ac) as substrate by fluorescence assay
Chain of Histone deacetylase 4 (P56524 whole entry): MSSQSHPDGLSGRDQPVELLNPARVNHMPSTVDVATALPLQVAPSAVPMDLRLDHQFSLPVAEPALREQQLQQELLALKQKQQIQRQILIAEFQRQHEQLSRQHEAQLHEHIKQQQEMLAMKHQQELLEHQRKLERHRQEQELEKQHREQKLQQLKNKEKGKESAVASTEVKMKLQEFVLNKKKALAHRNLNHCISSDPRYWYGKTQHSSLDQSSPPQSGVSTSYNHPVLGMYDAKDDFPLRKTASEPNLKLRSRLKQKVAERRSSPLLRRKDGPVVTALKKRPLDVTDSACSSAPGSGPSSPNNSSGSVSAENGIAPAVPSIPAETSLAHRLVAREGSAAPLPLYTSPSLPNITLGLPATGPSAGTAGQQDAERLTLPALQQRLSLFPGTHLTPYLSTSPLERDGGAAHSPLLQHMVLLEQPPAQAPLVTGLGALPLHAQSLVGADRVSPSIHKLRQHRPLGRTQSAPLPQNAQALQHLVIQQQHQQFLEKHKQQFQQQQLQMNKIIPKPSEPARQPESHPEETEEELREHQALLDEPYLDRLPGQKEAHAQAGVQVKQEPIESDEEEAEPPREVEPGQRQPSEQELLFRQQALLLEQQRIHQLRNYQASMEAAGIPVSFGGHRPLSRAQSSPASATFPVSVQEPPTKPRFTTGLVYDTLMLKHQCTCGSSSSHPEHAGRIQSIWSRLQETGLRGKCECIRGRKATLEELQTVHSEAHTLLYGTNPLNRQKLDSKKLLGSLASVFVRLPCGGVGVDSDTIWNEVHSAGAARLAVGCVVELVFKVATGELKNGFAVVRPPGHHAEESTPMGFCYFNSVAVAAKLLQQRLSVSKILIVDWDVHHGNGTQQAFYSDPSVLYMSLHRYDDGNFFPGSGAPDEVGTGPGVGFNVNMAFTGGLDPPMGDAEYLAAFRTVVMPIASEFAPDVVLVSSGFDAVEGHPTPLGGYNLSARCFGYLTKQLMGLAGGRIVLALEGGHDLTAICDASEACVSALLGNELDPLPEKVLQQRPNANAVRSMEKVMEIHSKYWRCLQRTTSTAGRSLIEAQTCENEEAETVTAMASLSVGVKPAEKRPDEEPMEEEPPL

BJAB [8] = test: Antitumor activity against human BJAB cells xenografted in NOD/SCID mouse assessed as tumor growth inhibition at 50 mg/kg, iv daily for 5 days/week measured on day 25 post first dose; type: functional, organism-based
KB = test: Growth inhibition of human KB cells after 48 hrs by SRB assay; type: functional, cell-based
BJAB [9] = test: Growth inhibition of human BJAB cells assessed as cell viability at 10 nM after 48 hrs by MTT assay (reference value: 100%)
[10] = Growth inhibition of human KB-7d cells after 48 hrs by SRB assay; type: functional; conditions: KB7D

pIC50 (MKN-45): 7.20
pIC50 [1]: 6.50
IC50 (Tubulin): 1100 nM
pIC50 [3]: 5.00
inhibition (Tubulin (Bos taurus)): 69.9%
IC50 (Histone deacetylase 9): Not Active
IC50 (Histone deacetylase 4): Not Active
pIC50 (KB): 7.31
Structure (SMILES): COc1ccc(S(=O)(=O)N2CCc3cccc(NCc4ccc(C(=O)Nc5ccccc5N)cc4)c32)cc1
viability at 0.08 µM (BJAB [2]): 22%
inhibition in vivo at 50 mg/kg (A549): 62.9%
pIC50 [4]: 7.36
pIC50 [5]: 7.19
Activity [6]: Non-Toxic
viability at 0.005 µM (BJAB [7]): 71%
TGI (BJAB [8]): Active
viability at 0.01 µM (BJAB [9]): 69%
pIC50 [10]: 7.33
